Results as given in ChEMBL document CHEMBL5576051, “Synthesis of 2,2-dimethyl-chroman-based stereochemically flexible and constrained anti-breast cancer agents” (Bioorg Med Chem Lett, 2024).
The source made the active and inactive calls. The calls are words filed in the database; no cut-off is given here.

Experiments:
MDA-MB-231 [1] = test: Antiproliferative activity against estrogen receptor negative human MDA-MB-231 cells assessed as inhibition of cell viability by MTT assay; assay type: functional, cell-based
MCF7 [2] = test: Antiproliferative activity against estrogen receptor positive human MCF7 cells assessed as inhibition of cell viability by MTT assay; assay type: functional, cell-based
MCF7 [3] = test: Induction of cell cycle arrest in estrogen receptor positive human MCF7 cells assessed as accumulation of cells at G2/M phase at 11 uM incubated for 24 hrs (reference value: 19.32%); assay type: functional
MCF7 [4] = test: Induction of apoptosis in human MCF7 cells assessed as inhibition of PARP level; assay type: functional, cell-based
MDA-MB-231 [5] = test: Induction of cell cycle arrest in estrogen receptor negative human MDA-MB-231 cells assessed as accumulation of cells at G0/G1 phase at 9 uM incubated for 24 hrs (reference value: 61.44%); assay type: functional
MCF7 [6] = test: Induction of cell cycle arrest in estrogen receptor positive human MCF7 cells assessed as accumulation of cells at G0/G1 phase at 11uM incubated for 24 hrs (reference value: 60.49%); assay type: functional
MDA-MB-231 [7] = test: Induction of cell cycle arrest in estrogen receptor […] human MDA-MB-231 cells assessed as accumulation of cells at S phase at 9 uM incubated for 24 hrs (reference value: 25.49%); assay type: functional
MDA-MB-231 [8] = test: Induction of cell cycle arrest in estrogen receptor […] human MDA-MB-231 cells assessed as accumulation of cells at G2/M phase at 9 uM incubated for 24 hrs (reference value: 13.64%); assay type: functional
MCF7 [9] = test: Induction of cell cycle arrest in estrogen receptor positive human MCF7 cells assessed as accumulation of cells at S phase at 11 uM incubated for 24 hrs (reference value: 20.84%); assay type: functional
MDA-MB-231 [10] = test: Induction of apoptosis in human MDA-MB-231 cells assessed as inhibition of PARP level; assay type: functional, cell-based
MCF7 [11] = test: Induction of cell cycle arrest in estrogen receptor positive human MCF7 cells assessed as accumulation of cells at G0/G1 phase at 15 uM incubated for 24 hrs (reference value: 60.49%); assay type: functional
MCF7 [12] = test: Induction of cell cycle arrest in estrogen receptor positive human MCF7 cells assessed as accumulation of cells at G2/M phase at 15 uM incubated for 24 hrs (reference value: 19.32%); assay type: functional
MCF7 [13] = test: Induction of cell cycle arrest in estrogen receptor positive human MCF7 cells assessed as accumulation of cells at S phase at 15 uM incubated for 24 hrs (reference value: 20.84%); assay type: functional
MDA-MB-231 [14] = test: Induction of cell cycle arrest in estrogen receptor […] human MDA-MB-231 cells assessed as accumulation of cells at G2/M phase at 8.8 uM incubated for 24 hrs (reference value: 13.64%); assay type: functional
MDA-MB-231 [15] = test: Induction of cell cycle arrest in estrogen receptor negative human MDA-MB-231 cells assessed as accumulation of cells at G0/G1 phase at 8.8 uM incubated for 24 hrs (reference value: 61.44%); assay type: functional
MCF7 [16] = test: Induction of cell cycle arrest in estrogen receptor positive human MCF7 cells assessed as accumulation of cells at G2/M phase at 12.9 uM incubated for 24 hrs (reference value: 19.32%); assay type: functional
MCF7 [17] = test: Induction of cell cycle arrest in estrogen receptor positive human MCF7 cells assessed as accumulation of cells at S phase at 12.9 uM incubated for 24 hrs (reference value: 20.84%); assay type: functional
MCF7 [18] = test: Induction of cell cycle arrest in estrogen receptor positive human MCF7 cells assessed as accumulation of cells at G0/G1 phase at 12.9 uM incubated for 24 hrs (reference value: 60.49%); assay type: functional
MDA-MB-231 [19] = test: Induction of cell cycle arrest in estrogen receptor […] human MDA-MB-231 cells assessed as accumulation of cells at S phase at 8.8 uM incubated for 24 hrs (reference value: 25.49%); assay type: functional
MCF7 [20] = test: Induction of cell cycle arrest in estrogen receptor positive human MCF7 cells assessed as accumulation of cells at G2/M phase at 13.4 uM incubated for 24 hrs (reference value: 19.32%); assay type: functional
MDA-MB-231 [21] = test: Induction of cell cycle arrest in estrogen receptor negative human MDA-MB-231 cells assessed as accumulation of cells at G0/G1 phase at 9.2 uM incubated for 24 hrs (reference value: 61.44%); assay type: functional
MCF7 [22] = test: Induction of cell cycle arrest in estrogen receptor positive human MCF7 cells assessed as accumulation of cells at G0/G1 phase at 13.4 uM incubated for 24 hrs (reference value: 60.49%); assay type: functional
MCF7 [23] = test: Induction of cell cycle arrest in estrogen receptor positive human MCF7 cells assessed as accumulation of cells at S phase at 13.4 uM incubated for 24 hrs (reference value: 20.84%); assay type: functional
MDA-MB-231 [24] = test: Induction of cell cycle arrest in estrogen receptor […] human MDA-MB-231 cells assessed as accumulation of cells at G2/M phase at 9.2 uM incubated for 24 hrs (reference value: 13.64%); assay type: functional
MDA-MB-231 [25] = test: Induction of cell cycle arrest in estrogen receptor […] human MDA-MB-231 cells assessed as accumulation of cells at S phase at 9.2 uM incubated for 24 hrs (reference value: 25.49%); assay type: functional

Row | Compound | IC50 (MDA-MB-231 [1]) [µM] | IC50 (MCF7 [2]) [µM] | further results
1 | COc1ccc2c(c1)OC(C)(C)C/C2=C(/c1ccc(O)cc1)c1ccccc1F | 17 | 22 | –
2 | COc1ccc2c(c1)OC(C)(C)C/C2=C(\c1ccccc1)c1ccccc1OCCN1CCCC1 | 13 | 19 | –
3 | COc1ccc2c(c1)OC(C)(C)CC2C(c1ccccc1)c1ccccc1O (stereo not given) | 10.4 | 13.6 | –
4 | COc1ccc2c(c1)OC(C)(C)CC2C(c1ccccc1)c1ccccc1OCC(C)N(C)C (stereo not given) | 11 | 14 | –
5 | COc1ccc2c(c1)OC(C)(C)C/C2=C(\c1ccccc1)c1ccccc1O | 12 | 16 | –
6 | COc1ccc2c(c1)OC(C)(C)CC2C(c1ccccc1)c1ccccc1OCCN1CCCC1 (stereo not given) | 20 | 25 | –
7 | CCN(CC)CCOc1ccc(C(c2ccccc2)C2CC(C)(C)Oc3cc(OC)ccc32)cc1 (stereo not given) | 11.5 | 15.4 | –
8 | COc1ccc2c(c1)OC(C)(C)CC2C(c1ccc(OCCN(C)C)cc1)c1ccccc1F (stereo not given) | 19 | 24 | –
9 | COc1ccc2c(c1)OC(C)(C)CC2C(c1ccccc1)c1ccc(OCC(C)N(C)C)cc1 (stereo not given) | 11.3 | 15.2 | –
10 | CCN(CC)CCOc1ccccc1/C(=C1/CC(C)(C)Oc2cc(OC)ccc21)c1ccccc1 | 12 | 15 | –
11 | COc1ccc2c(c1)OC(C)(C)CC2C(c1ccccc1)c1ccc(OCCN(C)C)cc1 (stereo not given) | – | – | Activity (MDA-MB-231 [1]): inactive; Activity (MCF7 [2]): inactive
12 | COc1ccc2c(c1)OC(C)(C)C/C2=C(\c1ccccc1)c1ccccc1OCCN1CCCCC1 | 12 | 16 | –

More lines, in order of falling IC50 (MDA-MB-231 [1]), values ahead:

Row | IC50 (MDA-MB-231 [1]) [µM] | IC50 (MCF7 [2]) [µM] | Compound | further results
13 | 9.96 | – | CC/C(=C(\c1ccccc1)c1ccc(OCCN(C)C)cc1)c1ccccc1 [TAMOXIFEN] | –
14 | 9.6 | 13.3 | COc1ccc2c(c1)OC(C)(C)CC2C(c1ccccc1)c1ccc(OCCN2CCCC2)cc1 (stereo not given) | –
15 | 9.5 | 12.5 | COc1ccc2c(c1)OC(C)(C)C/C2=C(\c1ccccc1)c1ccc(O)cc1 | –
16 | 9.5 | 12.5 | COc1ccc2c(c1)OC(C)(C)CC2C(c1ccccc1)c1ccc(O)cc1 (stereo not given) | –
17 | 9.2 | 13.4 | COc1ccc2c(c1)OC(C)(C)CC2C(c1ccccc1)c1ccccc1OCCN1CCCCC1 (stereo not given) | Activity (MCF7 [20]): 17.14%; Activity (MCF7 [4]): Active; Activity (MDA-MB-231 [21]): 74.38%; Activity (MCF7 [22]): 71.33%; Activity (MCF7 [23]): 11.86%; Activity (MDA-MB-231 [24]): 12.12%; Activity (MDA-MB-231 [25]): 13.75%; Activity (MDA-MB-231 [10]): Active
18 | 9 | 11 | COc1ccc2c(c1)OC(C)(C)C/C2=C(\c1ccccc1)c1ccccc1OCC(C)N(C)C (stereo not given) | Activity (MCF7 [3]): 22.64%; Activity (MCF7 [4]): Active; Activity (MDA-MB-231 [5]): 66.73%; Activity (MCF7 [6]): 58.31%; Activity (MDA-MB-231 [7]): 21.11%; Activity (MDA-MB-231 [8]): 12.94%; Activity (MCF7 [9]): 20%; Activity (MDA-MB-231 [10]): Active
19 | 9 | 15 | CCN(CC)CCOc1ccccc1C(c1ccccc1)C1CC(C)(C)Oc2cc(OC)ccc21 (stereo not given) | Activity (MCF7 [4]): Active; Activity (MDA-MB-231 [5]): 75.26%; Activity (MCF7 [11]): 61.57%; Activity (MDA-MB-231 [7]): 13.26%; Activity (MCF7 [12]): 20.33%; Activity (MCF7 [13]): 18.9%; Activity (MDA-MB-231 [8]): 11.71%; Activity (MDA-MB-231 [10]): Active
20 | 8.8 | 12.9 | COc1ccc2c(c1)OC(C)(C)C/C2=C(\c1ccccc1)c1ccccc1OCCN(C)C | Activity (MDA-MB-231 [14]): 13.2%; Activity (MCF7 [4]): Active; Activity (MDA-MB-231 [15]): 70.51%; Activity (MCF7 [16]): 19.26%; Activity (MCF7 [17]): 17.85%; Activity (MCF7 [18]): 63.58%; Activity (MDA-MB-231 [19]): 16.79%; Activity (MDA-MB-231 [10]): Active
21 | 8.5 | 13.3 | COc1ccc2c(c1)OC(C)(C)CC2C(c1ccccc1)c1ccc(OCCN2CCCCC2)cc1 (stereo not given) | –
22 | 8.5 | 13.5 | COc1ccc2c(c1)OC(C)(C)CC2C(c1ccccc1)c1ccccc1OCCN(C)C (stereo not given) | –
